# Legend:
# Assay in all cases: relative viability (nuclei count vs DMSO), 5 days (fraction); higher = more cells survive
# BEN = test system: BEN
# In short: (§1)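 Lung cancer cell lines, seeded in 1536-well plates, were treated the following day by pin tool with a single drug or with five library-drug doses (not always all listed) in √10 steps on top of a fixed anchor-drug dose. Cells were fixed and nuclei stained in one step after 5 days, and nuclei were counted. Relative viability is the nuclei count for treated wells divided by that for vehicle wells, reported as medians of duplicate plates.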
# EMC-BAC-2 = test system: EMC-BAC-2
# In short: as §1
# H3255 = test system: H3255
# In short: as §1
# HOP-62 = test system: HOP-62
# In short: as §1
# LCLC-97TM1 = test system: LCLC-97TM1
# In short: as §1
# LXF-289 = test system: LXF-289
# In short: as §1
# NCI-H1650 = test system: NCI-H1650
# In short: as §1
# NCI-H1915 = test system: NCI-H1915
# In short: as §1
# NCI-H1993 = test system: NCI-H1993
# In short: as §1
# NCI-H2009 = test system: NCI-H2009
# In short: as §1
# NCI-H2023 = test system: NCI-H2023
# In short: as §1
# NCI-H2085 = test system: NCI-H2085
# In short: as §1
# NCI-H2126 = test system: NCI-H2126
# In short: as §1
# NCI-H2342 = test system: NCI-H2342
# In short: as §1
# NCI-H2347 = test system: NCI-H2347
# In short: as §1
# NCI-H322M = test system: NCI-H322M
# In short: as §1
# NCI-H358 = test system: NCI-H358
# In short: as §1
# NCI-H647 = test system: NCI-H647
# In short: as §1
# NCI-H661 = test system: NCI-H661
# In short: as §1
# NCI-H727 = test system: NCI-H727
# In short: as §1
# PC-14 = test system: PC-14
# In short: as §1
# SK-LU-1 = test system: SK-LU-1
# In short: as §1
# SW 1573 = test system: SW 1573
# In short: as §1
structure (smiles),measurement,setting,value
COc1cc(N2CCC(C(N)=O)CC2)ccc1Nc1nc(N)c(Cl)c(Nc2ccccc2S(=O)(=O)C(C)C)n1 [HG-5-88-01] + Cc1cc(Nc2cc(N3CCN(C)CC3)nc(Sc3ccc(NC(=O)C4CC4)cc3)n2)n[nH]1 [Tozasertib] (partner 0.1 µM),relative viability,BEN; first compound 0.04 µM,0.554
same,relative viability,BEN; first compound 0.1265 µM,0.482
same,relative viability,BEN; first compound 0.4 µM,0.509
same,relative viability,BEN; first compound 1.265 µM,0.484
same,relative viability,BEN; first compound 4 µM,0.531
same,relative viability,EMC-BAC-2; first compound 0.04 µM,0.296
same,relative viability,EMC-BAC-2; first compound 0.1265 µM,0.288
same,relative viability,EMC-BAC-2; first compound 0.4 µM,0.261
same,relative viability,EMC-BAC-2; first compound 1.265 µM,0.264
same,relative viability,EMC-BAC-2; first compound 4 µM,0.24
same,relative viability,H3255; first compound 0.04 µM,0.71
same,relative viability,H3255; first compound 0.1265 µM,0.791
same,relative viability,H3255; first compound 0.4 µM,0.616
same,relative viability,H3255; first compound 4 µM,0.731
same,relative viability,HOP-62; first compound 0.04 µM,0.357
same,relative viability,HOP-62; first compound 0.1265 µM,0.359
same,relative viability,HOP-62; first compound 0.4 µM,0.307
same,relative viability,HOP-62; first compound 1.265 µM,0.327
same,relative viability,HOP-62; first compound 4 µM,0.334
same,relative viability,LCLC-97TM1; first compound 0.04 µM,0.215
same,relative viability,LCLC-97TM1; first compound 0.1265 µM,0.205
same,relative viability,LCLC-97TM1; first compound 0.4 µM,0.226
same,relative viability,LCLC-97TM1; first compound 1.265 µM,0.148
same,relative viability,LCLC-97TM1; first compound 4 µM,0.0909
same,relative viability,LXF-289; first compound 0.04 µM,0.156
same,relative viability,LXF-289; first compound 0.1265 µM,0.179
same,relative viability,LXF-289; first compound 0.4 µM,0.185
same,relative viability,LXF-289; first compound 1.265 µM,0.196
same,relative viability,LXF-289; first compound 4 µM,0.0786
same,relative viability,NCI-H1650; first compound 0.04 µM,0.428
same,relative viability,NCI-H1650; first compound 0.1265 µM,0.396
same,relative viability,NCI-H1650; first compound 0.4 µM,0.346
same,relative viability,NCI-H1650; first compound 1.265 µM,0.174
same,relative viability,NCI-H1650; first compound 4 µM,0.227
same,relative viability,NCI-H1915; first compound 0.04 µM,0.402
same,relative viability,NCI-H1915; first compound 0.1265 µM,0.436
same,relative viability,NCI-H1915; first compound 0.4 µM,0.453
same,relative viability,NCI-H1915; first compound 1.265 µM,0.429
same,relative viability,NCI-H1915; first compound 4 µM,0.339
same,relative viability,NCI-H1993; first compound 0.04 µM,0.607
same,relative viability,NCI-H1993; first compound 0.1265 µM,0.635
same,relative viability,NCI-H1993; first compound 0.4 µM,0.595
same,relative viability,NCI-H1993; first compound 1.265 µM,0.556
same,relative viability,NCI-H1993; first compound 4 µM,0.535
same,relative viability,NCI-H2009; first compound 0.04 µM,0.734
same,relative viability,NCI-H2009; first compound 0.1265 µM,0.753
same,relative viability,NCI-H2009; first compound 0.4 µM,0.611
same,relative viability,NCI-H2009; first compound 1.265 µM,0.578
same,relative viability,NCI-H2009; first compound 4 µM,0.451
same,relative viability,NCI-H2023; first compound 0.04 µM,0.35
same,relative viability,NCI-H2023; first compound 0.1265 µM,0.362
same,relative viability,NCI-H2023; first compound 0.4 µM,0.262
same,relative viability,NCI-H2023; first compound 1.265 µM,0.108
same,relative viability,NCI-H2023; first compound 4 µM,0.107
same,relative viability,NCI-H2085; first compound 0.04 µM,0.805
same,relative viability,NCI-H2085; first compound 0.1265 µM,0.784
same,relative viability,NCI-H2085; first compound 0.4 µM,0.776
same,relative viability,NCI-H2085; first compound 1.265 µM,0.696
same,relative viability,NCI-H2085; first compound 4 µM,0.391
same,relative viability,NCI-H2126; first compound 0.04 µM,0.937
same,relative viability,NCI-H2126; first compound 0.1265 µM,0.941
same,relative viability,NCI-H2126; first compound 0.4 µM,0.849
same,relative viability,NCI-H2126; first compound 1.265 µM,0.467
same,relative viability,NCI-H2126; first compound 4 µM,0.487
same,relative viability,NCI-H2342; first compound 0.04 µM,0.563
same,relative viability,NCI-H2342; first compound 0.1265 µM,0.547
same,relative viability,NCI-H2342; first compound 0.4 µM,0.574
same,relative viability,NCI-H2342; first compound 1.265 µM,0.273
same,relative viability,NCI-H2342; first compound 4 µM,0.443
same,relative viability,NCI-H2347; first compound 0.04 µM,0.638
same,relative viability,NCI-H2347; first compound 0.1265 µM,0.563
same,relative viability,NCI-H2347; first compound 0.4 µM,0.743
same,relative viability,NCI-H2347; first compound 1.265 µM,0.392
same,relative viability,NCI-H2347; first compound 4 µM,0.398
same,relative viability,NCI-H322M; first compound 0.04 µM,0.456
same,relative viability,NCI-H322M; first compound 0.1265 µM,0.443
same,relative viability,NCI-H322M; first compound 0.4 µM,0.387
same,relative viability,NCI-H322M; first compound 4 µM,0.38
same,relative viability,NCI-H358; first compound 0.04 µM,0.107
same,relative viability,NCI-H358; first compound 0.1265 µM,0.0991
same,relative viability,NCI-H358; first compound 0.4 µM,0.0776
same,relative viability,NCI-H358; first compound 1.265 µM,0.0713
same,relative viability,NCI-H358; first compound 4 µM,0.0702
same,relative viability,NCI-H647; first compound 0.04 µM,0.236
same,relative viability,NCI-H647; first compound 0.1265 µM,0.403
same,relative viability,NCI-H647; first compound 0.4 µM,0.309
same,relative viability,NCI-H647; first compound 1.265 µM,0.203
same,relative viability,NCI-H647; first compound 4 µM,0.216
same,relative viability,NCI-H661; first compound 0.04 µM,0.354
same,relative viability,NCI-H661; first compound 0.1265 µM,0.338
same,relative viability,NCI-H661; first compound 0.4 µM,0.333
same,relative viability,NCI-H661; first compound 1.265 µM,0.397
same,relative viability,NCI-H661; first compound 4 µM,0.377
same,relative viability,NCI-H727; first compound 0.04 µM,0.594
same,relative viability,NCI-H727; first compound 0.1265 µM,0.665
same,relative viability,NCI-H727; first compound 0.4 µM,0.582
same,relative viability,NCI-H727; first compound 1.265 µM,0.429
same,relative viability,NCI-H727; first compound 4 µM,0.429
same,relative viability,PC-14; first compound 0.04 µM,0.617
same,relative viability,PC-14; first compound 0.1265 µM,0.645
same,relative viability,PC-14; first compound 0.4 µM,0.602
same,relative viability,PC-14; first compound 1.265 µM,0.228
same,relative viability,PC-14; first compound 4 µM,0.257
same,relative viability,SK-LU-1; first compound 0.04 µM,0.337
same,relative viability,SK-LU-1; first compound 0.1265 µM,0.311
same,relative viability,SK-LU-1; first compound 0.4 µM,0.298
same,relative viability,SK-LU-1; first compound 1.265 µM,0.228
same,relative viability,SK-LU-1; first compound 4 µM,0.189
same,relative viability,SW 1573; first compound 0.04 µM,0.169
same,relative viability,SW 1573; first compound 0.1265 µM,0.128
same,relative viability,SW 1573; first compound 0.4 µM,0.166
same,relative viability,SW 1573; first compound 1.265 µM,0.157
same,relative viability,SW 1573; first compound 4 µM,0.162

# Source: the supplement of paper PMC10307832
